This note sets out measurements from patent US20250145594A1, “MODULATORS OF THE INTEGRATED STRESS PATHWAY” (Calico Life Sciences LLC, priority 2020, published 2025).

Some results are limits rather than exact numbers.

The subject of this experiment is ATF4 luciferase reporter in HEK293T cells. In words: ATF4-Luc assay (in vitro model of VWMD). The class given is cell-based, human. The note with it: Homo sapiens, HEK-293T, 7 h, HEK293T cells carrying the ATF4 luciferase reporter, 1 μg/mL tunicamycin, One Glo luminescence. In a few lines: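 Tunicamycin (1 μg/mL) stress with co-added compound for 7 hours in HEK293T cells stably carrying an ATF4 5′-UTR–luciferase reporter. EC50 values come from the luminescent signal (One Glo).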
For orientation: A reporter such as luciferase makes a cellular process visible.
What is called EC50 is the concentration at which the effect is half-maximal. Consider `O=C(NC12CC(n3cc(-c4ccc(OC(F)(F)F)cc4)nn3)(C1)C2)[C@H]1C[C@@H](O)c2cc(Cl)ccc2O1` [Compound 357, (2R,4R)-6-chloro-4-hydroxy-N-(3-{4-[4-(trifluoromethoxy)phenyl]-1H-1,2,3-triazol-1-yl}bicyclo[1.1.1]pentan-1-yl)-3,4-dihydro-2H-1-benzopyran-2-carboxamide], for which the EC50 is under 10 nM.

In the case of `O=C(NC12CC(n3cc(-c4ccc(Cl)c(F)c4)nn3)(C1)C2)[C@H]1C[C@@H](O)c2cc(Cl)ccc2O1` [Compound 358, (2R,4R)-6-chloro-N-{3-[4-(4-chloro-3-fluorophenyl)-1H-1,2,3-triazol-1-yl]bicyclo[1.1.1]pentan-1-yl}-4-hydroxy-3,4-dihydro-2H-1-benzopyran-2-carboxamide], the EC50 is under 10 nM.

`CCO[C@H]1CCN(C(=O)c2cnn(C34CC(NC(=O)[C@H]5C[C@@H](O)c6cc(Cl)ccc6O5)(C3)C4)c2)C1` [Compound 359, (2R,4R)-6-chloro-N-(3-{4-[(3S)-3-ethoxypyrrolidine-1-carbonyl]-1H-pyrazol-1-yl}bicyclo[1.1.1]pentan-1-yl)-4-hydroxy-3,4-dihydro-2H-1-benzopyran-2-carboxamide]: the EC50 lay within 10 to 50 nM.

With `O=C(NC12CC(c3cn(-c4ccc(OC(F)(F)F)cc4)nn3)(C1)C2)[C@H]1C[C@@H](O)c2cc(Cl)ccc2O1` [Compound 360, (2R,4R)-6-chloro-4-hydroxy-N-(3-{1-[4-(trifluoromethoxy)phenyl]-1H-1,2,3-triazol-4-yl}bicyclo[1.1.1]pentan-1-yl)-3,4-dihydro-2H-1-benzopyran-2-carboxamide], the EC50 is under 10 nM.

Regarding `O=C(NC12CC(n3cc(-c4ccc(OC(F)(F)F)cn4)cn3)(C1)C2)[C@H]1C[C@@H](O)c2cc(Cl)c(F)cc2O1` [Compound 361, (2R,4R)-6-chloro-7-fluoro-4-hydroxy-N-(3-{4-[5-(trifluoromethoxy)pyridin-2-yl]-1H-pyrazol-1-yl}bicyclo[1.1.1]pentan-1-yl)-3,4-dihydro-2H-1-benzopyran-2-carboxamide], the EC50 is under 10 nM.

Consider `O=C(COc1ccc(Cl)c(F)c1)NC12CC(n3cc(C(=O)N[C@H]4C[C@@H](OC(F)(F)F)C4)cn3)(C1)C2` [Compound 362, 1-{3-[2-(4-chloro-3-fluorophenoxy)acetamido]bicyclo[1.1.1]pentan-1-yl}-N-[cis-3-(trifluoromethoxy)cyclobutyl]-1H-pyrazole-4-carboxamide], for which the EC50 lay in the range of 50 to 250 nM.

In the case of `O=C(NC12CC(n3cc(C(=O)N4CC(COC(F)(F)F)C4)cn3)(C1)C2)[C@H]1C[C@@H](O)c2cc(Cl)c(F)cc2O1` [Compound 363, (2R,4R)-6-chloro-7-fluoro-4-hydroxy-N-[3-(4-{3-[(trifluoromethoxy)methyl]azetidine-1-carbonyl}-1H-pyrazol-1-yl)bicyclo[1.1.1]pentan-1-yl]-3,4-dihydro-2H-1-benzopyran-2-carboxamide], the EC50 was under 10 nM.

With `O=C(NC12CC(n3cc(-c4ccc(C(F)(F)F)cn4)cn3)(C1)C2)[C@H]1C[C@@H](O)c2cc(Cl)ccc2O1` [Compound 364, (2R,4R)-6-chloro-4-hydroxy-N-(3-{4-[5-(trifluoromethyl)pyridin-2-yl]-1H-pyrazol-1-yl}bicyclo[1.1.1]pentan-1-yl)-3,4-dihydro-2H-1-benzopyran-2-carboxamide], the EC50 is under 10 nM.

As for `O=C(NC12CC(n3cc(-c4cnc(C5CC5)nc4)cn3)(C1)C2)[C@H]1C[C@@H](O)c2cc(Cl)ccc2O1` [Compound 365, (2R,4R)-6-chloro-N-{3-[4-(2-cyclopropylpyrimidin-5-yl)-1H-pyrazol-1-yl]bicyclo[1.1.1]pentan-1-yl}-4-hydroxy-3,4-dihydro-2H-1-benzopyran-2-carboxamide], the concentration giving a half-maximal response (EC50) was under 10 nM.

Take `O=C(NC12CC(n3cc(C(=O)N4CCC(OC(F)(F)F)CC4)cn3)(C1)C2)[C@H]1C[C@@H](O)c2cc(Cl)ccc2O1` [Compound 366, (2R,4R)-6-chloro-4-hydroxy-N-(3-{4-[4-(trifluoromethoxy)piperidine-1-carbonyl]-1H-pyrazol-1-yl}bicyclo[1.1.1]pentan-1-yl)-3,4-dihydro-2H-1-benzopyran-2-carboxamide]: the concentration for a half-maximal effect (EC50) was 50 to 250 nM.

For the compound `O=C(NC12CC(n3cc(-c4ccc(OC(F)(F)F)cn4)cn3)(C1)C2)[C@H]1C[C@@H](O)c2ccccc2O1` [Compound 367, (2R,4R)-4-hydroxy-N-(3-{4-[5-(trifluoromethoxy)pyridin-2-yl]-1H-pyrazol-1-yl}bicyclo[1.1.1]pentan-1-yl)-3,4-dihydro-2H-1-benzopyran-2-carboxamide], the EC50 is under 10 nM.

Consider `O=C(NC12CC(n3cnc(C(=O)N4CC(COC(F)(F)F)C4)c3)(C1)C2)[C@H]1C[C@@H](O)c2cc(Cl)ccc2O1` [Compound 368, (2R,4R)-6-chloro-4-hydroxy-N-[3-(4-{3-[(trifluoromethoxy)methyl]azetidine-1-carbonyl}-1H-imidazol-1-yl)bicyclo[1.1.1]pentan-1-yl]-3,4-dihydro-2H-1-benzopyran-2-carboxamide], for which the EC50 lay in the range of 10 to 50 nM.

For the compound `O=C(NC12CC(n3cc(-c4ccc(OC(F)(F)F)cn4)cn3)(C1)C2)[C@H]1C[C@@H](O)c2cc(F)c(F)cc2O1` [Compound 369, (2R,4R)-6,7-difluoro-4-hydroxy-N-(3-{4-[5-(trifluoromethoxy)pyridin-2-yl]-1H-pyrazol-1-yl}bicyclo[1.1.1]pentan-1-yl)-3,4-dihydro-2H-1-benzopyran-2-carboxamide], the EC50 is under 10 nM.

Turning to `O=C(NC12CC(n3cc(C(=O)N4CC[C@@H](OC(F)(F)F)C4)cn3)(C1)C2)[C@H]1C[C@@H](O)c2cc(Cl)ccc2O1` [Compound 370, (2R,4R)-6-chloro-4-hydroxy-N-(3-{4-[(3R)-3-(trifluoromethoxy)pyrrolidine-1-carbonyl]-1H-pyrazol-1-yl}bicyclo[1.1.1]pentan-1-yl)-3,4-dihydro-2H-1-benzopyran-2-carboxamide], the EC50 lay within 10 to 50 nM.

For the compound `O=C(NC12CC(n3cc(C(=O)N4CC[C@H](OC(F)(F)F)C4)cn3)(C1)C2)[C@H]1C[C@@H](O)c2cc(Cl)ccc2O1` [Compound 371, (2R,4R)-6-chloro-4-hydroxy-N-(3-{4-[(3S)-3-(trifluoromethoxy)pyrrolidine-1-carbonyl]-1H-pyrazol-1-yl}bicyclo[1.1.1]pentan-1-yl)-3,4-dihydro-2H-1-benzopyran-2-carboxamide], the EC50 was under 10 nM.

With `O=C(NC12CC(n3cc(N4CC[C@H](COC(F)(F)F)C4)cn3)(C1)C2)[C@H]1C[C@@H](O)c2cc(Cl)ccc2O1` [Compound 373, (2R,4R)-6-chloro-4-hydroxy-N-[3-(4-{(3S)-3-[(trifluoromethoxy)methyl]pyrrolidin-1-yl}-1H-pyrazol-1-yl)bicyclo[1.1.1]pentan-1-yl]-3,4-dihydro-2H-1-benzopyran-2-carboxamide], the half-maximal effective concentration (EC50) was 50 to 250 nM.

For `O=C(NC12CC(n3cc(C(=O)N4CC(COC(F)(F)F)C4)cn3)(C1)C2)[C@H]1C[C@@H](O)c2cc(F)c(F)cc2O1` [Compound 374, (2R,4R)-6,7-difluoro-4-hydroxy-N-[3-(4-{3-[(trifluoromethoxy)methyl]azetidine-1-carbonyl}-1H-pyrazol-1-yl)bicyclo[1.1.1]pentan-1-yl]-3,4-dihydro-2H-1-benzopyran-2-carboxamide], the 50% effective concentration (EC50) lay in the range of 50 to 250 nM.

With `O=C(NC12CC(n3cc(C(=O)N4CC(COC(F)(F)F)C4)cn3)(C1)C2)[C@H]1C[C@@H](O)c2ccccc2O1` [Compound 375, (2R,4R)-4-hydroxy-N-[3-(4-{3-[(trifluoromethoxy)methyl]azetidine-1-carbonyl}-1H-pyrazol-1-yl)bicyclo[1.1.1]pentan-1-yl]-3,4-dihydro-2H-1-benzopyran-2-carboxamide], the EC50 was 250 to 500 nM.

Take `O=C(N[C@H]1C[C@@H](OC(F)(F)F)C1)c1cnn(C23CC(NC(=O)[C@H]4C[C@@H](O)c5cc(Cl)ccc5O4)(C2)C3)c1` [Compound 376, 1-(3-{[(2R,4R)-6-chloro-4-hydroxy-3,4-dihydro-2H-1-benzopyran-2-carbonyl]amino}bicyclo[1.1.1]pentan-1-yl)-N-[cis-3-(trifluoromethoxy)cyclobutyl]-1H-pyrazole-4-carboxamide]: the EC50 is 50 to 250 nM.

For the compound `O=C(NC12CC(n3cc(C(=O)N4CC(CC(F)F)C4)cn3)(C1)C2)[C@H]1C[C@@H](O)c2cc(Cl)ccc2O1` [Compound 377, (2R,4R)-6-chloro-N-(3-{4-[3-(2,2-difluoroethyl)azetidine-1-carbonyl]-1H-pyrazol-1-yl}bicyclo[1.1.1]pentan-1-yl)-4-hydroxy-3,4-dihydro-2H-1-benzopyran-2-carboxamide], the half-maximal effective concentration (EC50) is 250 to 500 nM.

As to `O=C(NC12CC(n3cc(C(=O)N4CC[C@H](OC(F)(F)F)C4)cn3)(C1)C2)[C@@H]1C[C@@H](O)c2cc(C(F)(F)F)ccc2O1` [Compound 378, (2S,4R)-4-hydroxy-N-(3-{4-[(3S)-3-(trifluoromethoxy)pyrrolidine-1-carbonyl]-1H-pyrazol-1-yl}bicyclo[1.1.1]pentan-1-yl)-6-(trifluoromethyl)-3,4-dihydro-2H-1-benzopyran-2-carboxamide], the EC50 was under 10 nM.

`O=C(NC12CC(n3cc(N4CC[C@@H](OC(F)(F)F)C4)cn3)(C1)C2)[C@@H]1C[C@@H](O)c2cc(Cl)c(F)cc2O1` [Compound 379, (2S,4R)-6-chloro-7-fluoro-4-hydroxy-N-(3-{4-[(3R)-3-(trifluoromethoxy)pyrrolidin-1-yl]-1H-pyrazol-1-yl}bicyclo[1.1.1]pentan-1-yl)-3,4-dihydro-2H-1-benzopyran-2-carboxamide]: the EC50 was under 10 nM.

In the case of `O=C(NC12CC(n3cc(-c4ccc(OC(F)(F)F)cn4)cn3)(C1)C2)[C@H]1C[C@@H](O)c2cc(Cl)c(Br)cc2O1` [Compound 380, (2R,4R)-7-bromo-6-chloro-4-hydroxy-N-(3-{4-[5-(trifluoromethoxy)pyridin-2-yl]-1H-pyrazol-1-yl}bicyclo[1.1.1]pentan-1-yl)-3,4-dihydro-2H-1-benzopyran-2-carboxamide], the EC50 is under 10 nM.
